Data set [1] has as its target hERG channel (Homo sapiens, UniProt Q12809). The data set is described as follows: Automated patch clamp recording of hERG tail current (IonWorks). To be noted: hERG tail current ratio post/pre-compound, 50 uM. (In general: The patch-clamp technique gives a direct electrical read-out from membranes.)
For data set [2], the target named is T1, GPR35 (Homo sapiens, UniProt Q9HC97).
T1 construct: myc; expressed in transfected cells; host or cells: HEK293, transient co-transfection (Lipofectamine LTX)
T1 sequence (Q9HC97 whole entry): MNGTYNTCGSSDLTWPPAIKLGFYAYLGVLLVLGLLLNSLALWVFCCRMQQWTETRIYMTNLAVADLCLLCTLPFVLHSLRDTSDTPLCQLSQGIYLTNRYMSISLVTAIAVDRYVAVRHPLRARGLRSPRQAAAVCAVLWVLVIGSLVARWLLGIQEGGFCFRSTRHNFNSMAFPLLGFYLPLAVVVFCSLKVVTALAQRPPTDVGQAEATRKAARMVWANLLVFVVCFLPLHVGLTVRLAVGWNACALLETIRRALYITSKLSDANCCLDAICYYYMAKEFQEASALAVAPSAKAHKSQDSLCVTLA
Description: Ca2+ mobilization assay (Fluo-4) in HEK-GPR35-Gqo5 cells. The format is cell-based. To be noted: for Ca2+ moblization (HEK-GPR35-Gqo5): HEK293 cells co-expressing GPR35 and Gqo5, Fluo-4, compounds 10 μM; for Ca2+ mobilization signal in cells co-expressing GPR35 and Gqo5: engineered HEK293, 10 μM.

In data set [3] the test system is GPR35. The data set is described as follows: DMR desensitization / antagonism mode against GPR35 agonist-induced DMR in HT29 cells. In kind it is cell-based, human. To be noted: HT29 cells pretreated with compound, then GPR35 agonist.
In data set [4] the test system is hERG channel. Description: Cross-desensitization DMR assay against hERG activator mallotoxin-induced DMR in HT29 cells. The conditions noted are these: HT29 cells pretreated with compound, then hERG activator mallotoxin. For orientation: Block of hERG is tested as a sign of cardiac risk.

Sequence of hERG channel (Homo sapiens, UniProt Q12809) (Q12809 whole entry): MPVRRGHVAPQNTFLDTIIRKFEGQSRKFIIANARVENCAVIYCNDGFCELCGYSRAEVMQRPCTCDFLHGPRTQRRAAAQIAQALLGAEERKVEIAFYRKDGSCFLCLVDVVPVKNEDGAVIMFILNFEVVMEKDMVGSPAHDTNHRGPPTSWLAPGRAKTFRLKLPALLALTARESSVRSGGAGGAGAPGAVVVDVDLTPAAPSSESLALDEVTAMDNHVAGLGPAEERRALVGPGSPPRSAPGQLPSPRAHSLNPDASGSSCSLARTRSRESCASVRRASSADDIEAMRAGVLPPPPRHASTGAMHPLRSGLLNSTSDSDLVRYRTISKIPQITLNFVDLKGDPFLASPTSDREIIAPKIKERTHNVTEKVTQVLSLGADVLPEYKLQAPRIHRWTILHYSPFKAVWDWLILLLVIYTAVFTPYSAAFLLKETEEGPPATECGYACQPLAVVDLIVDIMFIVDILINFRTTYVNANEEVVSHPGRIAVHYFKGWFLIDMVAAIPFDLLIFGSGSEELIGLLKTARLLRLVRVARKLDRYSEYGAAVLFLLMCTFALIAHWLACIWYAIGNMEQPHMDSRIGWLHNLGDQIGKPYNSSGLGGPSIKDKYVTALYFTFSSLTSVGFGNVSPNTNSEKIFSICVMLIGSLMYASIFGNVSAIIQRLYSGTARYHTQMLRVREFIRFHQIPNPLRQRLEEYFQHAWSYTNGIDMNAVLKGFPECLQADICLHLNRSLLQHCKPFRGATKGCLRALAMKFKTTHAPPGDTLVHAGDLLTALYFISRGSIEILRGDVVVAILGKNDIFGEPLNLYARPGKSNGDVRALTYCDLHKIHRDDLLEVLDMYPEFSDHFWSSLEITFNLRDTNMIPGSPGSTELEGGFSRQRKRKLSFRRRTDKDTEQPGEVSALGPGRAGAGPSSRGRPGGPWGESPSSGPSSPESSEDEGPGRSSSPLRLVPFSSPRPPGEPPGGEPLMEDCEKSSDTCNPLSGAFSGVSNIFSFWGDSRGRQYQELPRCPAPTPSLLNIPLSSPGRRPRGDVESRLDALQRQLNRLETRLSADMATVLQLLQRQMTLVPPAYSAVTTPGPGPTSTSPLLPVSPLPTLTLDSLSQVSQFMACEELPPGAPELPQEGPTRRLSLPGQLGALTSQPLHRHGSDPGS

On to `CCCCCCCCc1c(C(=O)O)sc2c(Br)csc12` [Compound 21, 3-n-octyl-6-bromo-thieno[3,2-b]thiophene-2-carboxylic acid], for which the “Electrophysiology (HEK-hERG)” value on hERG channel [1] is listed as “activator”. Further, the “Ca2+ moblization (HEK-GPR35-Gqo5)” value at GPR35 [2] was “active”. The “Desenstization to GPR35 agonist” value in the data set with GPR35 [3] is on record as “desenstized”.
Turning to `Cc1csc2c1sc1cc(C(=O)O)sc12` [Compound 22, 5-methyl-dithieno[3,2-b:2′,3′-d]thiophene-2-carboxylic acid], the “Electrophysiology (HEK-hERG)” value at hERG channel [1] was “inactive”. The “Ca2+ moblization (HEK-GPR35-Gqo5)” value at GPR35 [2] is “inactive”. Further, the “Desenstization to GPR35 agonist” value with GPR35 [3] is given as “desenstized”.
With `CCOC(=O)c1cc2sc3cc(C(=O)OCC)sc3c2s1` [Compound 23, diethyl dithieno[3,2-b:2′,3′-d]thiophene-2,6-dicarboxylate], the “Electrophysiology (HEK-hERG)” value on hERG channel [1] is “inactive”. Also, the “Ca2+ moblization (HEK-GPR35-Gqo5)” value on GPR35 [2] is “inactive”. For the same compound, the “Desenstization to GPR35 agonist” value in the data set with GPR35 [3] is given as “desenstized”.
On to `OCCN(CCO)c1ccc(C=Cc2cccs2)cc1` [Compound 24, N,N-bis(2-hydroxyethyl)-4-[2-(thiophene-2-yl)vinyl]aniline], for which the “Electrophysiology (HEK-hERG)” value at hERG channel [1] is “inactive”. For the same compound, the “Ca2+ moblization (HEK-GPR35-Gqo5)” value at GPR35 [2] was “inactive”. In addition, the “Desenstization to GPR35 agonist” value in the data set with GPR35 [3] is “inactive”.
Turning to `COC(=O)c1ccc(C=Cc2ccc(N(C)CCO)cc2)s1` [Compound 25, methyl-5-{2-[4-(N-methyl,N-2-hydroxyethyl-amino)phenyl]ethenyl}-thiophene-2-formate], the “Electrophysiology (HEK-hERG)” value at hERG channel [1] was “inactive”. Also, on GPR35 [2], the “Ca2+ moblization (HEK-GPR35-Gqo5)” value was “active”. Besides, the “Desenstization to GPR35 agonist” value in the data set on GPR35 [3] was “desenstized”.
The corresponding values for `CN(CCO)c1ccc(C=Cc2ccc(C(=O)[O-])s2)cc1.[Li+]` [Compound 26, 5-{2-[4-(N-methyl, N-2-hydroxyethyl-amino)phenyl]ethenyl}-thiophene-2-formate lithium] are “inactive”, “active” and “desenstized”.
The corresponding values for `OCc1ccc(-c2cccs2)s1` [Compound 27, 2,2′-bithiophene-5-methanol] are “blocker”, “inactive” and “inactive”.
The matching figures for `O=Cc1ccc(-c2ccc(CO)s2)s1` [Compound 28, 5-hydroxymethyl-5′-formyl-2,2′-bithiophene]: “inactive”, “inactive” and “desenstized”.
As for `O=C([O-])c1ccc(-c2ccc(/C=C/c3ccc(N(CCO)CCO)cc3)s2)s1.[Na+]` [Compound 29], the “Electrophysiology (HEK-hERG)” value at hERG channel [1] is “activator”. In addition, the “Ca2+ moblization (HEK-GPR35-Gqo5)” value at GPR35 [2] is given as “active”. Also, the “Desenstization to GPR35 agonist” value in the data set with GPR35 [3] is given as “desenstized”. In the data set with hERG channel [4], the “Desenstization to hERG activator” value is on record as “partially desenstized”.
Take `O=Cc1ccc(-c2cccs2)s1` [Compound 30, 2,2′-bithiophene-5-carboxaldehyde]: the “Electrophysiology (HEK-hERG)” value at hERG channel [1] is reported as “blocker”. Besides, the “Ca2+ moblization (HEK-GPR35-Gqo5)” value at GPR35 [2] is “inactive”. In the data set with GPR35 [3], the “Desenstization to GPR35 agonist” value is “desenstized”.
In the case of `O=C(O)c1cc(-c2ccc(F)cc2F)ccc1O` [Diflunisal], the “Electrophysiology (HEK-hERG)” value at hERG channel [1] is reported as “activator”. Also, on GPR35 [2], the “Ca2+ moblization (HEK-GPR35-Gqo5)” value is recorded as “active”; the “Ca2+ mobilization signal in cells co-expressing GPR35 and Gqo5” value (from here on “Ca2+ mobilization signal”) is listed as “active”. Also, in the data set on GPR35 [3], the “Desenstization to GPR35 agonist” value is “desenstized”.
As for `O=C(O)c1ccccc1Nc1cccc(C(F)(F)F)c1` [Flufenamic acid], the “Electrophysiology (HEK-hERG)” value at hERG channel [1] is on record as “activator”. Besides, at GPR35 [2], the “Ca2+ moblization (HEK-GPR35-Gqo5)” value was “active”; the “Ca2+ mobilization signal” value is “active”. Also, the “Desenstization to GPR35 agonist” value with GPR35 [3] is “desenstized”. In addition, in the data set on hERG channel [4], the “Desenstization to hERG activator” value is on record as “desenstized”.
Regarding `Cc1c(Nc2ncccc2C(=O)O)cccc1C(F)(F)F` [Flunixin], at hERG channel [1], the “Electrophysiology (HEK-hERG)” value was “activator”. Besides, on GPR35 [2], the “Ca2+ moblization (HEK-GPR35-Gqo5)” value was “active”; the “Ca2+ mobilization signal” value is “active”. In addition, the “Desenstization to GPR35 agonist” value in the data set on GPR35 [3] is listed as “desenstized”.
For the compound `O=C(O)c1cc(=O)c2ccccc2[nH]1` [Kynurenic acid], the “Electrophysiology (HEK-hERG)” value at hERG channel [1] was “inactive”. In addition, the “Ca2+ moblization (HEK-GPR35-Gqo5)” value at GPR35 [2] was “inactive”. Further, in the data set with GPR35 [3], the “Desenstization to GPR35 agonist” value is given as “desenstized”.
As to `Cc1ccc(Cl)c(Nc2ccccc2C(=O)O)c1Cl` [Meclofenamate], at GPR35 [2], the “Ca2+ moblization (HEK-GPR35-Gqo5)” value was “inactive”. The “Desenstization to GPR35 agonist” value in the data set on GPR35 [3] was “desenstized”. Also, in the data set with hERG channel [4], the “Desenstization to hERG activator” value was “partially desenstized”.
Take `O=C(O)c1cc([N+](=O)[O-])ccc1NCCCc1ccccc1` [NPPB]: the “Electrophysiology (HEK-hERG)” value at hERG channel [1] is “activator”. Further, on GPR35 [2], the “Ca2+ moblization (HEK-GPR35-Gqo5)” value is “active”; the “Ca2+ mobilization signal” value is reported as “active”. The “Desenstization to GPR35 agonist” value in the data set on GPR35 [3] is recorded as “desenstized”.
In the case of `O=C(O)c1cccnc1Nc1cccc(C(F)(F)F)c1` [Niflumic acid], the “Electrophysiology (HEK-hERG)” value at hERG channel [1] is on record as “activator”. Further, on GPR35 [2], the “Ca2+ moblization (HEK-GPR35-Gqo5)” value is “active”; the “Ca2+ mobilization signal” value is given as “active”. The “Desenstization to GPR35 agonist” value with GPR35 [3] is recorded as “desenstized”.
Take `O=C(O)c1cc(/N=N/c2ccc(S(=O)(=O)Nc3ccccn3)cc2)ccc1O` [Sulfasalazine]: the “Electrophysiology (HEK-hERG)” value at hERG channel [1] was “inactive”. Besides, the “Ca2+ moblization (HEK-GPR35-Gqo5)” value at GPR35 [2] was “inactive”. In addition, the “Desenstization to GPR35 agonist” value in the data set on GPR35 [3] is given as “desenstized”.
In the case of `CC1=C(CC(=O)O)c2cc(F)ccc2/C1=C\c1ccc([S+](C)[O-])cc1` (centres unmarked) [Sulindac], the “Electrophysiology (HEK-hERG)” value at hERG channel [1] was “blocker”. Further, the “Ca2+ moblization (HEK-GPR35-Gqo5)” value at GPR35 [2] is “inactive”. In the data set on GPR35 [3], the “Desenstization to GPR35 agonist” value is recorded as “desenstized”.
The matching figures for `O=C1OC(OC(=O)c2cccnc2Nc2cccc(C(F)(F)F)c2)c2ccccc21` (centres unmarked) [Talniflumate]: “inactive”, “inactive” and “desenstized”.
With `Cc1c(Cl)cccc1Nc1ccccc1C(=O)O` [Tolfenamic acid], on hERG channel [1], the “Electrophysiology (HEK-hERG)” value is recorded as “blocker”. Also, at GPR35 [2], the “Ca2+ moblization (HEK-GPR35-Gqo5)” value is reported as “active”; the “Ca2+ mobilization signal” value is on record as “active”. For the same compound, the “Desenstization to GPR35 agonist” value with GPR35 [3] was “desenstized”.
For `N#C/C(=C\c1ccc(O)c(O)c1)C(N)=O` [Tyrphostin 46], the “Electrophysiology (HEK-hERG)” value on hERG channel [1] is “inactive”. Besides, the “Desenstization to GPR35 agonist” value in the data set on GPR35 [3] is “desenstized”. Also, the “Desenstization to hERG activator” value with hERG channel [4] was “inactive”.
On to `N#C/C(=C\c1ccc(O)c(O)c1)C(N)=S` [Tyrphostin 47], for which, on hERG channel [1], the “Electrophysiology (HEK-hERG)” value was “activator”. Further, the “Desenstization to GPR35 agonist” value in the data set with GPR35 [3] is listed as “desenstized”. Also, in the data set with hERG channel [4], the “Desenstization to hERG activator” value is “partially desenstized”.
`N#CC(C#N)=C(N)/C(C#N)=C/c1cc(O)c(O)c(O)c1` [Tyrphostin 51]: at hERG channel [1], the “Electrophysiology (HEK-hERG)” value was “inactive”. Further, the “Desenstization to GPR35 agonist” value in the data set on GPR35 [3] was “desenstized”. For the same compound, the “Desenstization to hERG activator” value with hERG channel [4] is “partially desenstized”.

Values taken from US20120022116A1, “COMPOSITIONS AND METHODS FOR THE TREATMENT OF PATHOLOGICAL CONDITION(S) RELATED TO GPR35 AND/OR GPR35-HERG COMPLEX” (priority 2010, published 2012).
